According to US11279687B2, “Compounds and compositions for the inhibition of NAMPT” (Valo Health, Inc., priority 2010, dated 2022):
Where two headings read alike, the source gives them in different places.

Experiments:
NAMPT = NAMPT (Homo sapiens (Human), UniProt P43490); experiment: NAMPT biochemical inhibition assay (NMN quantified by mass spectrometry); settings: NAMPT biochemical inhibition; read-out: Biochem IC50
A2780 cells = experiment: In-vitro cell proliferation assay (SRB), A2780 cells; format: cell-based; settings: A2780 cells, 72 hours, SRB, read-out: A2780 IC50;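 also: viable cell number read as SRB absorbance, background from media-only wells subtracted, IC50 interpolated from percent inhibition at two bracketing compound concentrations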

NAMPT, sequence (P43490 whole entry): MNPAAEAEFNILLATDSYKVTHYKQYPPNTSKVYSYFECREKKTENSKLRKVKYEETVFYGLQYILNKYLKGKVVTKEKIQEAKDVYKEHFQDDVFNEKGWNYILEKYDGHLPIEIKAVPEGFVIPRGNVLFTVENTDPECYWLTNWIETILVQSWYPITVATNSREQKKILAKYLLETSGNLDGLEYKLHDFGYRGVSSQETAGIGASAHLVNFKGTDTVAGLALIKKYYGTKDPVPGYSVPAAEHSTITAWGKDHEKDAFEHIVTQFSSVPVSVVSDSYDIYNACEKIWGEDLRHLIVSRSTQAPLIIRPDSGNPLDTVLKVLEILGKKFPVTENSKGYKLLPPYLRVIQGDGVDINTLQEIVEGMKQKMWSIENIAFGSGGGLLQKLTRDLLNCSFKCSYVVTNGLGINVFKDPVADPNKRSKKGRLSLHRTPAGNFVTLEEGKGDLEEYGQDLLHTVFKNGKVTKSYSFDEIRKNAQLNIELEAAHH

CC(C)C(=O)Nc1cccc(S(=O)(=O)c2ccc(NC(=O)NCc3cccnc3)cc2)c1 [2-methyl-N-{3-[(4-{[(pyridin-3-ylmethyl)carbamoyl]amino}benzene)sulfonyl]phenylJpropanamide]
IC50 (NAMPT): 1.2 nM
IC50 (A2780 cells): 10.1 nM

COc1cccc(C2(N3CCN(S(=O)(=O)c4ccc(NC(=O)NCc5cccnc5)cc4)CC3)CCC(C)CC2)c1 (centres unmarked) [3-(4-{4-[1-(3-methoxyphenyl)-4-methylcyclohexyl]piperazine-1-sulfonyl}phenyl)-1-(pyridin-3-ylmethyl)urea]
IC50 (NAMPT): 4 nM
IC50 (A2780 cells; Homo sapiens, A2780, 72 h): 5 nM

O=C(NCc1cccnc1)Nc1ccc(S(=O)(=O)N2CCN(C(=O)Cc3ccc(Cl)c(Cl)c3)CC2)cc1 [3-(4-{4-[2-(3,4-dichlorophenyl)acetyl]piperazine-1-sulfonyl[phenyl)-1-(pyridin-3-ylmethyl)urea]
IC50 (NAMPT): 3.7 nM
IC50 (A2780 cells): 1000 to 10000 nM

CCN(CC)CCN1CCN(S(=O)(=O)c2ccc(NC(=O)NCc3cccnc3)cc2)CC1 [3-(4-{4-[2-(diethylamino)ethyl]piperazine-1-sulfonyl}phenyl)-1-(pyridin-3-ylmethyl)urea]
IC50 (NAMPT): 4 nM
IC50 (A2780 cells; Homo sapiens, A2780, 72 h): 23 nM

O=C(NCc1cccnc1)Nc1ccc(S(=O)(=O)N2CCN(c3ncc(C(F)(F)F)cc3Cl)CC2)cc1 [3-(4-{4-[3-chloro-5-(trifluoromethyl)pyridin-2-yl]piperazine-1-sulfonyl}phenyl)-1-(pyridin-3-ylmethyl)urea]
IC50 (NAMPT): 5 nM
IC50 (A2780 cells; Homo sapiens, A2780, 72 h): 128 nM

O=C(NCc1cccnc1)Nc1ccc(S(=O)(=O)N2CCC(C(=O)c3ccc(F)cc3)CC2)cc1 [3-(4-{4-[(4-fluorophenyl)carbonyl]piperidine-1-sulfonyl}phenyl)-1-(pyridin-3-ylmethyl)urea]
IC50 (NAMPT): 10 nM
IC50 (A2780 cells; Homo sapiens, A2780, 72 h): 206 nM

O=C(NCc1cccnc1)Nc1ccc(S(=O)(=O)N2CCC(C(=O)N3CCOCC3)CC2)cc1 [3-(4-{4-[(morpholin-4-yl)carbonyl]piperidine-1-sulfonyl}phenyl)-1-(pyridin-3-ylmethyl)urea]
IC50 (NAMPT): 8 nM
IC50 (A2780 cells; Homo sapiens, A2780, 72 h): 40 nM

O=C(NCc1cccnc1)Nc1ccc(S(=O)(=O)N2CCN(C(c3ccc(F)cc3)c3ccc(F)cc3)CC2)cc1 [3-(4-{4-[bis(4-fluorophenyl)methyl]piperazine-1-sulfonyl}phenyl)-1-(pyridin-3-ylmethyl)urea]
IC50 (NAMPT): 5 nM
IC50 (A2780 cells; Homo sapiens, A2780, 72 h): 7 nM

CN1CCCC2(CCCN(S(=O)(=O)c3ccc(NC(=O)NCc4cccnc4)cc3)C2)C1 (centres unmarked) [3-(4-{8-methyl-2,8-diazaspiro[5.5]undecane-2-sulfonyl}phenyl)-1-(pyridin-3-ylmethyl)urea]
IC50 (NAMPT): 1 nM
IC50 (A2780 cells; Homo sapiens, A2780, 72 h): 1 nM

O=C(NCc1cccnc1)Nc1ccc(S(=O)(=O)Nc2cccnc2Oc2ccc(F)cc2)cc1 [3-(4-{[2-(4-fluorophenoxy)pyridin-3-yl]sulfamoyl}phenyl)-1-(pyridin-3-ylmethyl)urea]
IC50 (NAMPT): 11 nM
IC50 (A2780 cells; Homo sapiens, A2780, 72 h): 149 nM

O=C(NCc1cccnc1)Nc1ccc(S(=O)(=O)Nc2ccccc2OC(F)F)cc1 [3-(4-{[2-(difluoromethoxy)phenyl]sulfamoyl}phenyl)-1-(pyridin-3-ylmethyl)urea]
IC50 (NAMPT): 0.6 nM
IC50 (A2780 cells; Homo sapiens, A2780, 72 h): 31 nM

COCc1ccccc1S(=O)(=O)c1ccc(NC(=O)NCc2cccnc2)cc1 [3-(4-{[2-(methoxymethyl)benzene]sulfonyl}phenyl)-1-(pyridin-3-ylmethyl)urea]
IC50 (NAMPT): 6 nM
IC50 (A2780 cells; Homo sapiens, A2780, 72 h): 39 nM

O=C(NCc1cccnc1)Nc1ccc(S(=O)(=O)Nc2cc(C(F)(F)F)ccc2N2CCOCC2)cc1 [3-(4-{[2-(morpholin-4-yl)-5-(trifluoromethyl)phenyl]sulfamoyl}phenyl)-1-(pyridin-3-ylmethyl)urea]
IC50 (NAMPT): 8 nM
IC50 (A2780 cells; Homo sapiens, A2780, 72 h): 7 nM

O=C(NCc1cccnc1)Nc1ccc(S(=O)(=O)Nc2cc(C(F)(F)F)ccc2N2CCCCC2)cc1 [3-(4-{[2-(piperidin-1-yl)-5-(trifluoromethyl)phenyl]sulfamoyl}phenyl)-1-(pyridin-3-ylmethyl)urea]
IC50 (NAMPT): 5 nM
IC50 (A2780 cells; Homo sapiens, A2780, 72 h): 22 nM

CC(C)Oc1ccccc1NS(=O)(=O)c1ccc(NC(=O)NCc2cccnc2)cc1 [3-(4-{[2-(propan-2-yloxy)phenyl]sulfamoyl}phenyl)-1-(pyridin] [3-(4-{[2-(propan-2-yloxy)phenyl]sulfamoyl}phenyl)-1-(pyridin-3-ylmethyl)urea]
IC50 (NAMPT): 2 nM
IC50 (A2780 cells): 15 nM

O=C(NCc1cccnc1)Nc1ccc(S(=O)(=O)c2cc(OC(F)(F)F)ccc2Cl)cc1 [3-(4-{[2-chloro-5-(trifluoromethoxy)benzene]sulfonyl}phenyl)-1-(pyridin-3-ylmethyl)urea]
IC50 (NAMPT): 6.3 nM
IC50 (A2780 cells; Homo sapiens, A2780, 72 h): 100 to 1000 nM

O=C(NCc1cccnc1)Nc1ccc(S(=O)(=O)c2cc(C(F)(F)F)ccc2Cl)cc1 [3-(4-{[2-chloro-5-(trifluoromethyl)benzene]sulfonyl}phenyl)-1-(pyridin-3-ylmethyl)urea]
IC50 (NAMPT): 5 nM
IC50 (A2780 cells; Homo sapiens, A2780, 72 h): 339 nM

O=C(NCc1cccnc1)Nc1ccc(S(=O)(=O)c2ccc(-n3cccn3)cc2F)cc1 [3-(4-{[2-fluoro-4-(1H-pyrazol-1-yl)benzene]sulfonyl}phenyl)-1-(pyridin-3-ylmethyl)urea]
IC50 (NAMPT): 1 nM
IC50 (A2780 cells; Homo sapiens, A2780, 72 h): 14 nM

COc1cc(-n2cccn2)ccc1S(=O)(=O)c1ccc(NC(=O)NCc2cccnc2)cc1 [3-(4-{[2-methoxy-4-(1H-pyrazol-1-yl)benzene]sulfonyl}phenyl)-1-(pyridin-3-ylmethyl)urea]
IC50 (NAMPT): 2 nM
IC50 (A2780 cells; Homo sapiens, A2780, 72 h): 3 nM

COc1ccc(C(C)C)cc1S(=O)(=O)c1ccc(NC(=O)NCc2cccnc2)cc1 [3-(4-{[2-methoxy-5-(propan-2-yl)benzene]sulfonyl}phenyl)-1-(pyridin-3-ylmethyl)urea]
IC50 (NAMPT): 3 nM
IC50 (A2780 cells; Homo sapiens, A2780, 72 h): 31 nM

COc1ccc(C(F)(F)F)cc1S(=O)(=O)c1ccc(NC(=O)NCc2cccnc2)cc1 [3-(4-{[2-methoxy-5-(trifluoromethyl)benzene]sulfonyl}phenyl)-1-(pyridin-3-ylmethyl)urea]
IC50 (NAMPT): 1.4 nM
IC50 (A2780 cells; Homo sapiens, A2780, 72 h): 3.3 nM

Cc1cc(-n2cccn2)ccc1S(=O)(=O)c1ccc(NC(=O)NCc2cccnc2)cc1 [3-(4-{[2-methyl-4-(1H-pyrazol-1-yl)benzene]sulfonyl}phenyl)-1-(pyridin-3-ylmethyl)urea]
IC50 (NAMPT): 2 nM
IC50 (A2780 cells; Homo sapiens, A2780, 72 h): 21 nM

Cc1cc(C(F)(F)F)ccc1S(=O)(=O)c1ccc(NC(=O)NCc2cccnc2)cc1 [3-(4-{[2-methyl-4-(trifluoromethyl)benzene]sulfonyl}phenyl)-1-(pyridin-3-ylmethyl)urea]
IC50 (NAMPT): 11.8 nM
IC50 (A2780 cells; Homo sapiens, A2780, 72 h): 100 to 1000 nM

CC(C)COc1cccc(S(=O)(=O)c2ccc(NC(=O)NCc3cccnc3)cc2)c1 [3-(4-{[3-(2-methylpropoxy)benzene]sulfonyl]phenyl)-1-(pyridin-3-ylmethyl)urea]
IC50 (NAMPT): 3.3 nM
IC50 (A2780 cells; Homo sapiens, A2780, 72 h): 100 to 1000 nM

Cc1cc(C)n(-c2cccc(S(=O)(=O)c3ccc(NC(=O)NCc4cccnc4)cc3)c2)n1 [3-(4-{[3-(3,5-dimethyl-1H-pyrazol-1-yl)benzene]sulfonyl}phenyl)-1-(pyridin-3-ylmethyl)urea]
IC50 (NAMPT): 1.6 nM
IC50 (A2780 cells; Homo sapiens, A2780, 72 h): 15.9 nM

Cc1nnc(-c2cccc(S(=O)(=O)c3ccc(NC(=O)NCc4cccnc4)cc3)c2)o1 [3-(4-{[3-(5-methyl-1,3,4-oxadiazol-2-yl)benzene]sulfonyl]phenyl)-1-(pyridin-3-ylmethyl)urea]
IC50 (NAMPT): 7.3 nM
IC50 (A2780 cells): 100 to 1000 nM

CN(C)S(=O)(=O)c1cccc(S(=O)(=O)c2ccc(NC(=O)NCc3cccnc3)cc2)c1 [3-(4-{[3-(dimethylsulfamoyl)benzene]sulfonyl]phenyl)-1-(pyridin-3-ylmethyl)urea]
IC50 (NAMPT): 3.3 nM
IC50 (A2780 cells; Homo sapiens, A2780, 72 h): 79.3 nM

CCS(=O)(=O)c1cccc(S(=O)(=O)c2ccc(NC(=O)NCc3cccnc3)cc2)c1 [3-(4-{[3-(ethanesulfonyl)benzene]sulfonyl]phenyl)-1-(pyridin-3-ylmethyl)urea]
IC50 (NAMPT): 7.6 nM
IC50 (A2780 cells; Homo sapiens, A2780, 72 h): 100 to 1000 nM

CCNS(=O)(=O)c1cccc(S(=O)(=O)c2ccc(NC(=O)NCc3cccnc3)cc2)c1 [3-(4-{[3-(ethylsulfamoyl)benzene]sulfonyl}phenyl)-1-(pyridin-3-ylmethyl)urea]
IC50 (NAMPT): 7.2 nM
IC50 (A2780 cells; Homo sapiens, A2780, 72 h): 100 to 1000 nM

COCc1cccc(S(=O)(=O)c2ccc(NC(=O)NCc3cccnc3)cc2)c1 [3-(4-{[3-(methoxymethyl)benzene]sulfonyl}phenyl)-1-(pyridin-3-ylmethyl)urea]
IC50 (NAMPT): 3.3 nM
IC50 (A2780 cells; Homo sapiens, A2780, 72 h): 93.3 nM

CC(C)c1cccc(S(=O)(=O)c2ccc(NC(=O)NCc3cccnc3)cc2)c1 [3-(4-{[3-(propan-2-yl)benzene]sulfonyl}phenyl)-1-(pyridin-3-ylmethyl)urea]
IC50 (NAMPT): 2 nM
IC50 (A2780 cells; Homo sapiens, A2780, 72 h): 38 nM

CC(C)Oc1cccc(S(=O)(=O)c2ccc(NC(=O)NCc3cccnc3)cc2)c1 [3-(4-{[3-(propan-2-yloxy)benzene]sulfonyl}phenyl)-1-(pyridin-3-ylmethyl)urea]
IC50 (NAMPT): 4 nM
IC50 (A2780 cells; Homo sapiens, A2780, 72 h): 79 nM

CCCS(=O)(=O)Nc1cccc(S(=O)(=O)c2ccc(NC(=O)NCc3cccnc3)cc2)c1 [3-(4-{[3-(propane-1-sulfonamido)benzene]sulfonyl}phenyl)-1-(pyridin-3-ylmethyl)urea]
IC50 (NAMPT): 1.6 nM
IC50 (A2780 cells; Homo sapiens, A2780, 72 h): 86 nM

O=C(NCc1cccnc1)Nc1ccc(S(=O)(=O)Nc2ccc(N3CCOCC3)c(Cl)c2)cc1 [3-(4-{[3-chloro-4-(morpholin-4-yl)phenyl]sulfamoyl}phenyl)-1-(pyridin-3-ylmethyl)urea]
IC50 (NAMPT): 1 nM
IC50 (A2780 cells; Homo sapiens, A2780, 72 h): 24 nM

O=C(NCc1cccnc1)Nc1ccc(S(=O)(=O)c2ccc(C(F)(F)F)c(Cl)c2)cc1 [3-(4-{[3-chloro-4-(trifluoromethyl)benzene]sulfonyl}phenyl)-1-(pyridin-3-ylmethyl)urea]
IC50 (NAMPT): 4 nM
IC50 (A2780 cells; Homo sapiens, A2780, 72 h): 100 to 1000 nM

O=C(NCc1cccnc1)Nc1ccc(S(=O)(=O)c2cc(Cl)cc(C(F)(F)F)c2)cc1 [3-(4-{[3-chloro-5-(trifluoromethyl)benzene]sulfonyl}phenyl)-1-(pyridin-3-ylmethyl)urea]
IC50 (NAMPT): 1.3 nM
IC50 (A2780 cells; Homo sapiens, A2780, 72 h): 25.5 nM

O=C(NCc1cccnc1)Nc1ccc(S(=O)(=O)c2ccc(OCC(F)(F)F)c(F)c2)cc1 [3-(4-{[3-fluoro-4-(2,2,2-trifluoroethoxy)benzene]sulfonyl}phenyl)-1-(pyridin-3-ylmethyl)urea]
IC50 (NAMPT): 2.2 nM
IC50 (A2780 cells; Homo sapiens, A2780, 72 h): 100 to 1000 nM
